By pKa is commonly meant the pH at which an ionisable group is half protonated. One may read the LD50 as the dose at which mortality reaches 50%. Read a low LD50 as greater toxicity.

Converted amounts (≈) assume the structure as drawn. Where a name gives a salt, the structure may show the parent alone. Read-outs that look alike come from different tables or passages of the source.

Series [1] relates to Bacillus subtilis ATCC 6633. Nature of the series: Cylinder cup assay (bioassay potency). Format: cell-based. Particulars: for potency (bioassay): reference standard assigned 1000 mcg/mg. The method, then:
The assay technique employed is a cylinder cup assay using Bacillus subtilis ATCC 6633 as the test organism.
The physical conditions of the assay consist of a base layer of 21 ml. and a seed layer of 4 ml. of Antibiotic Medium No. 5. A standard curve is plotted using the following concentrations of antibiotic ([…]) in 0.1 M phosphate buffer (pH 8.0): 0.64, 0.8, 1.0, 1.25, and 1.56. […] The test procedure and the test medium is substantially that described for erythromycin in Assay Methods of Antibiotics, D. C. Grove and W. A. Randall, Medical Encyclopedia Inc., New York, New York (1955) pp. 96-103.

The next series deals with gram-positive bacteria. As to the kind of experiment: Antibacterial activity, general statements. The class given is cell-based. The method, then: (§1) The in vitro activity of Antibiotic 67-694 is ascertained by conventional tube dilution procedures using yeast beef broth medium at pH 7.4. The tubes are incubated for 18 hours at 37° C. prior to being observed.
The subject of another series is Aerobacter aerogenes. Nature of the series: In vitro activity, tube dilution (MIC), Aerobacter aerogenes. Format: cell-based. Particulars: 3 strains; yeast beef broth pH 7.4, 18 h, 37° C.; read-out: MIC (Minimal Inhibitory Concentration), range. How it is done: as §1
A further series deals with trypsin. As to the kind of experiment: Stability to trypsin. Format: in vitro ADME. The following applies: trypsin 1 mg./ml. pH 8, 37° C., 24 hours; disc assay E. coli and S. aureus. How it is done:
(§2) Antiobiotic 67-694 has been tested for stability against trypsin, chymotrypsin, pepsin, and α-amylase. Solutions of the enzymes were prepared at 1 mg./ml. in McIlvaines buffers at the optimal pH for the enzyme (i.e. trypsin and chymotrypsin pH 8; pepsin, pH 2.2; and α-amylase pH 4). Two hundred (200) mcg. of antibiotic was dissolved in 0.5 ml. of water, mixed with 0.5 ml. of enzyme solution and incubated at 37° C. for 24 hours. The solutions were disc assayed against Escherichia coli and Staphylococcus aureus after 0, 1, 2.5 and 24 hours incubation.

Another series relates to α-amylase. Nature of the series: Stability to α-amylase. Format: in vitro ADME. Particulars: α-amylase 1 mg./ml. pH 4, 37° C., 24 hours; disc assay E. coli and S. aureus. The method, then:
as §2

Series [2] deals with Staphylococcus aureus gray. Nature of the series: Protective activity in mice, Staphylococcus aureus gray infection. Particulars: two doses, survival 48 hours after infection, read-out: PD50. The class given is in vivo, male CF-1 (Carworth Farms) mice. The method, then: (§3) The protective activity and the acute toxicity of Antibiotic 67-694 is tested in male CF-1 (Carworth Farms) mice weighing approximately 20 gms. each. For protection, the antibiotic is given as a suspension or a solution in an aqueous vehicle containing 0.5% carboxy methyl cellulose (CMC) in two doses; one shortly before and one 4 hours after intraperitoneal infection with the bacteria. Infected and non-treated mice (controls) generally die within 18 hours. Survival rate in the treated group is determined 48 hours after infection.
(§4) The acute toxicity of Antibiotic 67-694 is measured in the standard manner by administering the antibiotic by a variety of routes and determining the LD50 by standard procedures. The results of in vivo tests using a representative gram-positive and a representative gram negative organism are set forth in Tables X and Xi below: […]

A further series deals with pepsin. Nature of the series: Stability to pepsin. The class given is in vitro ADME. The following applies: pepsin 1 mg./ml. pH 2.2, 37° C., 24 hours; disc assay E. coli and S. aureus. The method, then: as §2
A further series deals with Klebsiella pneumoniae. Nature of the series: In vitro activity, tube dilution (MIC), Klebsiella pneumoniae. The class given is cell-based. Particulars: 4 strains; yeast beef broth pH 7.4, 18 h, 37° C.; read-out: MIC (Minimal Inhibitory Concentration), range. The method, then: as §1
The nature of the next series: Solubility. Format: physicochemical. Particulars: U.S. Pharmacopea, 17th revision. An excerpt: ^a) According to U.S. Pharmacopea, 17th revision (1965) pg. 8
The nature of a further series: pKa. Format: physicochemical.
Another series relates to chymotrypsin. As to the kind of experiment: Stability to chymotrypsin. Format: in vitro ADME. The following applies: chymotrypsin 1 mg./ml. pH 8, 37° C., 24 hours; disc assay E. coli and S. aureus. How it is done:
as §2

A further series has as its system Streptococcus pyogenes. As to the kind of experiment: In vitro activity, tube dilution (MIC), Streptococcus pyogenes. Particulars: 7 strains; yeast beef broth pH 7.4, 18 h, 37° C.; read-out: MIC (Minimal Inhibitory Concentration), range. Format: cell-based. The method, then:
as §1

For another series, the system named is Proteus sp. As to the kind of experiment: In vitro activity, tube dilution (MIC), Proteus sp. The class given is cell-based. The following applies: 3 strains; yeast beef broth pH 7.4, 18 h, 37° C.; read-out: MIC (Minimal Inhibitory Concentration), range. How it is done:
as §1

Another series has as its system Enterococcus sp. Nature of the series: In vitro activity, tube dilution (MIC), Enterococcus sp. The class given is cell-based. The following applies: 2 strains; yeast beef broth pH 7.4, 18 h, 37° C.; read-out: MIC (Minimal Inhibitory Concentration), range. The method, then:
as §1

Another series concerns Diplococcus Pneumoniae. Nature of the series: In vitro activity, tube dilution (MIC), Diplococcus Pneumoniae. Format: cell-based. The following applies: 3 strains; yeast beef broth pH 7.4, 18 h, 37° C.; read-out: MIC (Minimal Inhibitory Concentration), range. The method, then: as §1
The subject of series [3] is Salmonella schottmuelleri. Nature of the series: In vitro activity, tube dilution (MIC), Salmonella schottmuelleri. The following applies: 3 strains; yeast beef broth pH 7.4, 18 h, 37° C.; read-out: MIC (Minimal Inhibitory Concentration), range. The class given is cell-based. The method, then:
as §1

The nature of another series: Acute toxicity in mice. The following applies: mouse, in vivo. Also noted: species or system male CF-1 (Carworth Farms) mice. How it is done:
as §3, §4

The conditions of series [4]: in 66% dimethylformamide; data from U.S. Pat. No. 3,767,793; cited from earlier work.
For another series, the system named is Staphylococcus aureus. As to the kind of experiment: In vitro activity, tube dilution (MIC), Staphylococcus aureus. Format: cell-based. Particulars: 6 strains; yeast beef broth pH 7.4, 18 h, 37° C.; read-out: MIC (Minimal Inhibitory Concentration), range. The method, then:
as §1

A further series relates to Escherichia coli. As to the kind of experiment: In vitro activity, tube dilution (MIC), Escherichia coli. The class given is cell-based. The following applies: 3 strains; yeast beef broth pH 7.4, 18 h, 37° C.; read-out: MIC (Minimal Inhibitory Concentration), range. How it is done:
as §1

The conditions of series [5]: U.S. Pat. No. 3,767,793, cited from earlier work.
The subject of a further series is Pseudomonas aeruginosa. As to the kind of experiment: In vitro activity, tube dilution (MIC), Pseudomonas aeruginosa. Format: cell-based. Particulars: 4 strains; yeast beef broth pH 7.4, 18 h, 37° C.; read-out: MIC (Minimal Inhibitory Concentration), range. The method, then: as §1
The test system of a further series is Streptococcus pyogenes C. As to the kind of experiment: Protective activity in mice, Streptococcus pyogenes C infection. Particulars: two doses, survival 48 hours after infection, read-out: PD50. The class given is in vivo, male CF-1 (Carworth Farms) mice. How it is done:
as §3, §4

With `CCC(=O)OC1C(OC2C(CC=O)CC(C)C(=O)C=CC3(C)OC3C(C)C(CC)OC(=O)CC(O)C2C)OC(C)CC1N(C)C` (centres unmarked) [Antibiotic 67-694 2'-Propionate Phosphate Salt], in [1] (Phosphate Salt), the “potency (bioassay)” value came out at 915 µg/mg.
With `CCC1OC(=O)CC(O)C(C)C(OC2OC(C)CC(N(C)C)C2O)C(CC=O)CC(C)C(=O)C=CC2(C)OC2C1C` (centres unmarked) [Antibiotic 67-694], in the series with gram-positive bacteria, the “antibacterial activity / spectrum (in words)” value is reported as “broad antibacterial spectrum in vitro with a greater effect upon gram-positive bacteria”. In addition, the MIC is 0.75 to 7.5 mg/L (≈ 1.29 to 12.9 µM) in the series with Aerobacter aerogenes; 0.3 to 3 mg/L (≈ 0.516 to 5.16 µM) with Klebsiella pneumoniae; 0.75 to 3 mg/L (≈ 1.29 to 5.16 µM) in the series on Streptococcus pyogenes; 0.3 mg/L (≈ 0.516 µM) in the series on Proteus sp.; 0.03 mg/L (≈ 0.0516 µM) with Enterococcus sp.; 0.03 to 0.08 mg/L (≈ 0.0516 to 0.138 µM) in the series with Diplococcus Pneumoniae. For the same compound, the MIC in [3] was 0.3 to 3 mg/L (≈ 0.516 to 5.16 µM); in the series with Staphylococcus aureus, 0.03 to 3 mg/L (≈ 0.0516 to 5.16 µM); in the series with Escherichia coli it was 3 mg/L (≈ 5.16 µM); with Pseudomonas aeruginosa it was 0.75 to 3 mg/L (≈ 1.29 to 5.16 µM). In addition, the “Stability to enzymes: loss in activity” value with trypsin, with α-amylase, in the series on pepsin and in the series with chymotrypsin was “no substantial loss in activity” in each case. Further, the ED50 in [2] (oral) came to 200 mg/kg; in series [2] (sc, Subcutaneous), 50 mg/kg; with Streptococcus pyogenes C (Oral) it was 200 mg/kg; in the series on Streptococcus pyogenes C (sc, Subcutaneous) it was 50 mg/kg. For the same compound, the Solubility result in the series “Solubility” (Acetone) is “Very soluble”; in the series “Solubility” (Benzene), “Very soluble”; in “Solubility” (Chloroform), “Very soluble”; in “Solubility” (Ether) it was “Sparingly soluble”; in the series “Solubility” (Methanol) it was “Very soluble”; in “Solubility” (Water) it was “Slightly soluble”. Besides, the pKa was 8.7 in “pKa” and 8.4 in [4]. The LD50 in “Acute toxicity in mice” (ip, Intraperitoneal) was found to be 350 mg/kg; in the series “Acute toxicity in mice” (sc, Subcutaneous), 625 mg/kg; in “Acute toxicity in mice” (Intravenous) it was 155 mg/kg. In addition, the Solubilities result in series [5] (benzene, chloroform, ethyl acetate, dimethylformamide, ethanol or an aqueous acid solution) is reported as “Soluble”; in series [5] (petroleum ether, n-hexane or a neutral water), “Insoluble”. The “potency (assaying units per mg)” value in series [1] (purified by silicic acid column, Example 4) is “about 1,000 units per mg”.
For the compound `CCCCCCCCCCCCCCCCCC(=O)OC1C(OC2C(CC=O)CC(C)C(=O)C=CC3(C)OC3C(C)C(CC)OC(=O)CC(O)C2C)OC(C)CC1N(C)C` (centres unmarked) [Antibiotic 67-694 2'-stearate, Antibiotic 67-694 2'-Stearate], the “potency (bioassay)” value in series [1] stood at 585 µg/mg.

The record behind these values is patent publication US4161523A, “Rosamicin esters, acid addition salts and methods for production thereof” (priority 1974, dated 1979).
